Test [1] deals with T1, α-glucosidase from baker’s yeast (Saccharomyces cerevisiae, UniProt P53341).
T1 construct: purchased Sigma G5003
The test is described as follows: biochemical. The format is biochemical. As to conditions: for fold higher α-glucosidase inhibitory activity than 3: compared with compound 3; for fold higher α-glucosidase inhibitory activity than 5a: compared with compound 5a. Here is the method: The commercially available α-glucosidase from baker’s yeast (Sigma, G5003) was selected as the target protein while using p-nitrophenyl-α-D-glucopyranoside (pNGP, Sigma, N1377) as the substrate. […] The enzyme and substrate were dissolved in potassium phosphate buffer (0.05 M, pH 6.8). The enzymatic reaction mixture that was composed of α-glucosidase (0.04 U, 20 μL), substrate (0.5 mM, 30 μL), test compounds (20 μL), and potassium phosphate buffer (130 μL) was incubated at 37 °C for 30 min. The enzymatic activity was detected by spectrophotometer at the wavelength of 405 nm. The results are the average of three independent experiments, each being performed in duplicate.

Another test deals with T2, DPP-4 (Homo sapiens, UniProt P27487).
T2 construct: purchased PROSPEC ENZ-375
T2 sequence (P27487 whole entry): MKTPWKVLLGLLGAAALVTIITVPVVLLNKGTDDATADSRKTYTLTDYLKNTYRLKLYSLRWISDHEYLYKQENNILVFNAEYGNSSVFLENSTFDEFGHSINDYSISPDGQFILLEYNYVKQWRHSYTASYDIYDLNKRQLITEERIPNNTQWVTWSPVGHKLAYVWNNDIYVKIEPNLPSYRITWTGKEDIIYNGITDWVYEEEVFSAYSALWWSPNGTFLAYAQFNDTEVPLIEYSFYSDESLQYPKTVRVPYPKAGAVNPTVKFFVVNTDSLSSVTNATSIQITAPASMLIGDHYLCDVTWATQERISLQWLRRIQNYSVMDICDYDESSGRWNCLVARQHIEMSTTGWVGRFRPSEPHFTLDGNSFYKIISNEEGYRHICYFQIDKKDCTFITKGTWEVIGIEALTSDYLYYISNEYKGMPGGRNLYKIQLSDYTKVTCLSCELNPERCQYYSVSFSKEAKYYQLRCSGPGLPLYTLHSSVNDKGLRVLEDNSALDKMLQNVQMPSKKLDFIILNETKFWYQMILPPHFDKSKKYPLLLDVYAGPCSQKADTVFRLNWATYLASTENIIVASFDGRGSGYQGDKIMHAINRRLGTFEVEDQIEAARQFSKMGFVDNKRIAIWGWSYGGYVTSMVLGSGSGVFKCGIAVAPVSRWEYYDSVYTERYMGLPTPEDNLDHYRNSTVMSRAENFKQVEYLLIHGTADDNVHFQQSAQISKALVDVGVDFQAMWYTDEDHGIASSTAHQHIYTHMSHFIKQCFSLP
The test is described as follows: DPP-4 inhibition assay (glycyl proline p-nitroaniline substrate). It counts as biochemical. As to conditions: average of three independent experiments, each in duplicate; 37 °C, 30 min. Here is the method:
The enzyme and substrate were dissolved in Tris-HCl buffer (0.1 M, pH 8.0). The enzymatic reaction mixture that was composed of DPP-4 (0.01 U, 50 μL), substrate (2.2 mM, 50 μL), test compounds (10 μL), and Tris-HCl buffer (90 μL) was incubated at 37 °C for 30 min. […] The results are the average of three independent experiments, each being performed in duplicate.

A further test concerns the target T3, α-glucosidase (Saccharomyces cerevisiae, UniProt P53341).
T3 construct: purchased Sigma G5003
The test can be described thus: Kinetics of enzyme inhibition (velocity vs enzyme plots, Lineweaver-Burk). The format is biochemical, baker’s yeast. As to conditions: for reversibility of α-glucosidase inhibition: plots of velocity versus enzyme concentration at different inhibitor concentrations. The procedure: The commercially available α-glucosidase from baker’s yeast (Sigma, G5003) was selected as the target protein while using p-nitrophenyl-α-D-glucopyranoside (pNGP, Sigma, N1377) as the substrate. The compounds and acarbose were dissolved in DMSO. The enzyme and substrate were dissolved in potassium phosphate buffer (0.05 M, pH 6.8). The enzymatic reaction mixture that was composed of α-glucosidase (0.04 U, 20 μL), substrate (0.5 mM, 30 μL), test compounds (20 μL), and potassium phosphate buffer (130 μL) was incubated at 37 °C for 30 min. The enzymatic activity was detected by spectrophotometer at the wavelength of 405 nm. The results are the average of three independent experiments, each being performed in duplicate.
The kinetics of enzyme inhibition was performed with the same assays detailed above, in the presence of different concentrations of compounds 4d and 5d, substrate, and enzyme, respectively. The inhibitory kinetics of 4d and 5d on α-glucosidase was analyzed using the Lineweaver-Burk plot of the substrate concentration and velocity.

The next test deals with HepG2 cells. The test is described as follows: Glucose consumption assay in HepG2 cells. The note with it: 24 h. It counts as cell-based, human. Here is the method:
Briefly, the HepG2 cells were cultured in Dulbecco’s-modified Eagle’s medium (DMEM) containing 25 mmol/L D-glucose, 10% heat-inactivated fetal bovine serum (FBS), 10 U/mL penicillin, and […] streptomycin at 37 °C, 5% CO2 atmosphere. The culture solution was replaced every other day and then passaged once for 2–3 d. The cells were seeded into 96-well plate with twenty-four wells left as blanks. After reaching 70–80% confluence, the cells were washed with PBS twice and the medium was replaced by DMEM containing 25 mmol/L D-glucose to hunger for 24 h. The cells were washed with PBS twice and the medium was replaced by RPMI-1640 containing 11.1 mmol/L glucose that was supplemented with 0.2% bovine serum albumin (BSA). To the medium was then added 1 mmol/L metformin or purified product at different concentrations, and DMSO was used as the blank control. The glucose concentration in the medium […] 24 h treatment. Glucose consumption = glucose concentrations of blank wells − glucose concentrations of plated wells. The sulforhodamine B (SRB) assay was used to adjust the glucose consumption values. The SRB assay is based on the measurement of cellular protein content. […] Bound SRB was solubilized with 150 μL Tris-base (10 mmol/L, pH 10.5) solution for OD determination at 546 nm while using a microplate reader.

Setting [2] is: average of three independent experiments, each in duplicate, 37 °C, 30 min, read-out: IC50 α-Glucosidase.

Entries after “also recorded” stand apart in the source; their conditions may differ. Read-outs that look alike come from different tables or passages of the source. Bounds are passed on as bounds.

T1 sequence (P53341 whole entry): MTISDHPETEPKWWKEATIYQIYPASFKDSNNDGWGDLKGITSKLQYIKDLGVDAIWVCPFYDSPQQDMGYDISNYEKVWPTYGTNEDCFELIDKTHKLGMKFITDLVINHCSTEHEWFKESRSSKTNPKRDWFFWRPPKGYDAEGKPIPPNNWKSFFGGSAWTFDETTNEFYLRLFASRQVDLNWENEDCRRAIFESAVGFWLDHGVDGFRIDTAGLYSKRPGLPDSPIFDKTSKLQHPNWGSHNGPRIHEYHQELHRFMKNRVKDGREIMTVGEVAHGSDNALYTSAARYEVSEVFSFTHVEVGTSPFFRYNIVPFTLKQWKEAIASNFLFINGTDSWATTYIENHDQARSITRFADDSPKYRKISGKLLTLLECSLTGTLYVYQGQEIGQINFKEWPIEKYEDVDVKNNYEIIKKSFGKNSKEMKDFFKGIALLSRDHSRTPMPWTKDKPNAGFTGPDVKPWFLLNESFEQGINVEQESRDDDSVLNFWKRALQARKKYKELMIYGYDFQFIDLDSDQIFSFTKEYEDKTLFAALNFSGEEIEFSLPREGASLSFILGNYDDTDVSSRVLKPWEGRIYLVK
T3 sequence (P53341 whole entry): as above

Consider `CC1(C)C=Cc2c(O)c(Cc3c(O)c4c(c(C(=O)C=Cc5cccc(O)c5O)c3O)OC(C)(C)C=C4)c(O)c(C(=O)C=Cc3cccc(O)c3O)c2O1` (stereo in doubt) [Compound 5c, (2Z,2’Z)-1,1’-(Methylenebis(5,7-dihydroxy-2,2-dimethyl-2H-chromene-6,8-diyl))bis (3-(2,3-dihydroxyphenyl)prop-2-en-1-one)], for which the IC50 (in general, the concentration needed to halve the response being measured) in test [1] is 1.07 ± 0.06 µM; against DPP-4 it was more than 50 µM.
Regarding `CC(C)=CCc1c(O)cc(O)c(C(=O)/C=C/c2ccc(O)cc2)c1O` [Compound 1, Desmethylxanthohumol, reference compound], the 50% inhibitory concentration (IC50) in test [1] (setting [2]) is 22.4 ± 3.1 µM; on DPP-4 it was more than 50 µM.
Turning to `CC1(C)C=Cc2c(O)c(Cc3c(O)c4c(c(C(=O)C=Cc5ccsc5)c3O)OC(C)(C)C=C4)c(O)c(C(=O)C=Cc3ccsc3)c2O1` (stereo in doubt) [Compound 4d, (2Z,2’Z)-1,1’-(Methylenebis(5,7-dihydroxy-2,2-dimethyl-2H-chromene-6,8-diyl))bis (3-(thiophen-3-yl)prop-2-en-1-one)], the IC50 was found to be 0.22 ± 0.07 µM in test [1] (setting [2]) and 23.59 ± 0.14 µM at DPP-4. For the same molecule, in test [1], the “fold higher α-glucosidase inhibitory activity than 3” value was 26 fold. For the same molecule, on α-glucosidase, the “reversibility of α-glucosidase inhibition” value is listed as “irreversibly; also recorded: irreversible α-glucosidase inhibitors”.
For `CC1(C)C=Cc2c(O)c(Cc3c(O)c4c(c(C(=O)C=Cc5ccc(O)c(O)c5O)c3O)OC(C)(C)C=C4)c(O)c(C(=O)C=Cc3ccc(O)c(O)c3O)c2O1` (stereo in doubt) [Compound 5d, (2Z,2’Z)-1,1’-(Methylenebis(5,7-dihydroxy-2,2-dimethyl-2H-chromene-6,8-diyl))bis (3-(2,3,4-trihydroxyphenyl)prop-2-en-1-one)], the IC50 turned out to be 0.12 ± 0.02 µM in test [1] and 26.19 ± 0.22 µM on DPP-4. Besides, in test [1], the “fold higher α-glucosidase inhibitory activity than 5a” value is listed as “four-fold”. The glucose consumption entry in the test with HepG2 cells (0.04 μM) is given as “significantly promote glucose consumption”; in the test on HepG2 cells (0.2 μM, metformin 1 mM positive control) it was “significantly promote glucose consumption; also recorded: comparable to that of metformin”. The “type of α-glucosidase inhibition” value at α-glucosidase (Lineweaver-Burk plot, 0, 0.2, 0.5 μM) is on record as “mixed competitive α-glucosidase inhibitor; also recorded: mixed competitive inhibitory mode”. The “reversibility of α-glucosidase inhibition” value on α-glucosidase was “irreversibly; also recorded: irreversible α-glucosidase inhibitors”.
On to `CC1(C)C=Cc2c(O)c(Cc3c(O)c4c(c(C(=O)C=Cc5ccc(O)cc5)c3O)OC(C)(C)C=C4)c(O)c(C(=O)C=Cc3ccc(O)cc3)c2O1` (stereo in doubt) [Compound 5a, (2Z,2’Z)-1,1’-(Methylenebis(5,7-dihydroxy-2,2-dimethyl-2H-chromene-6,8-diyl))bis (3-(4-hydroxyphenyl)prop-2-en-1-one)], for which the concentration for half-maximal inhibition (IC50) in test [1] is 0.51 ± 0.19 µM; against DPP-4, more than 50 µM. Moreover, the “fold higher α-glucosidase inhibitory activity than 3” value in test [1] is given as 10 fold.
As for `CC1(C)C=Cc2c(O)c(Cc3c(O)c4c(c(C(=O)C=Cc5ccc(F)cc5)c3O)OC(C)(C)C=C4)c(O)c(C(=O)C=Cc3ccc(F)cc3)c2O1` (stereo in doubt) [Compound 4b, (2Z,2’Z)-1,1’-(Methylenebis(5,7-dihydroxy-2,2-dimethyl-2H-chromene-6,8-diyl))bis (3-(4-fluoro phenyl)prop-2-en-1-one)], the IC50 in test [1] is 8.71 ± 0.54 µM; against DPP-4, more than 50 µM.
In the case of “(2Z,2’Z)-1,1’-(Methylenebis(5,7-dihydroxy-2,2-dimethyl-2H-chromene-6,8-diyl))bis (3-(furan-3-yl)prop-2-en-1-one) [Compound 4c]”, the IC50 in test [1] (setting [2]) turned out to be 1.84 ± 0.41 µM; against DPP-4 it was 21.48 ± 0.09 µM. The “fold higher α-glucosidase inhibitory activity than 3” value in test [1] is recorded as “three-fold”.
As to `CC(=O)c1c(O)c(Cc2c(O)c3c(c(C(C)=O)c2O)OC(C)(C)C=C3)c(O)c2c1OC(C)(C)C=C2` [Compound 9, 1,1’-(Methylenebis(5,7-dihydroxy-2,2-dimethyl-2H-chromene-6,8-diyl))bis (ethan-1-one)], the figures for the IC50 (in test [1] (setting [2]); against DPP-4) were 7.11 ± 0.05 µM and more than 50 µM, respectively.
For `CC1(C)C=Cc2c(O)c(Cc3c(O)c4c(c(C(=O)C=Cc5ccc(O)cc5O)c3O)OC(C)(C)C=C4)c(O)c(C(=O)C=Cc3ccc(O)cc3O)c2O1` (stereo in doubt) [Compound 5b, (2Z,2’Z)-1,1’-(Methylenebis(5,7-dihydroxy-2,2-dimethyl-2H-chromene-6,8-diyl))bis (3-(2,4-dihydroxyphenyl)prop-2-en-1-one)], the values for the half-inhibitory concentration (IC50) (in test [1]; at DPP-4) were 0.24 ± 0.02 µM and more than 50 µM, respectively. Also, in test [1], the “fold higher α-glucosidase inhibitory activity than 5a” value was “two-fold”.
Take `COc1c2c(c(C(=O)/C=C\c3ccccc3)c(O)c1Cc1c(O)c(C(=O)/C=C\c3ccccc3)c3c(c1OC)C=CC(C)(C)O3)OC(C)(C)C=C2` [Compound 12, (2Z,2’Z)-1,1’-(Methylenebis(7-hydroxy-5-methoxy-2,2-dimethyl-2H-chromene-6,8-diyl))bis(3-phenylprop-2-en-1-one)]: the IC50 in test [1] was 3.39 ± 0.13 µM; against DPP-4, more than 50 µM.
The matching figures for `COc1ccc(C=CC(=O)c2c(O)c(Cc3c(O)c4c(c(C(=O)C=Cc5ccc(OC)cc5)c3O)OC(C)(C)C=C4)c(O)c3c2OC(C)(C)C=C3)cc1` (stereo in doubt) [Compound 4a, (2Z,2’Z)-1,1’-(Methylenebis(5,7-dihydroxy-2,2-dimethyl-2H-chromene-6,8-diyl))bis (3-(4-methoxyphenyl)prop-2-en-1-one)]: 6.41 ± 0.33 µM and more than 50 µM.
For `CC1(C)C=Cc2c(O)c(Cc3c(O)c4c(c(C(=O)C=Cc5ccccc5)c3O)OC(C)(C)C=C4)c(O)c(C(=O)C=Cc3ccccc3)c2O1` (stereo in doubt) [Compound 3, (2Z,2’Z)-1,1’-(Methylenebis(5,7-dihydroxy-2,2-dimethyl-2H-chromene-6,8-diyl))bis (3-phenylprop-2-en-1-one)], the figures for the IC50 (in test [1] (setting [2]); against DPP-4) were 5.91 ± 0.19 µM and more than 50 µM, respectively.
The matching figures for `CC1(C)C=Cc2c(O)cc(O)c(C(=O)/C=C/c3ccc(O)cc3)c2O1` [Compound 2, dehydrocyclodesmethylxanthohumol, reference compound]: 9.74 ± 0.73 µM and more than 50 µM.
Turning to `COc1c2c(c(C(=O)/C=C\c3ccccc3)c(O)c1Cc1c(OC)c3c(c(C(=O)/C=C\c4ccccc4)c1OC)OC(C)(C)C=C3)OC(C)(C)C=C2` [Compound 13, (Z)-1-(6-((5,7-Dimethoxy-2,2-dimethyl-8-((Z)-3-phenylacryloyl)-2H-chromen-6-yl)methyl)-7-hydroxy-5-methoxy-2,2-dimethyl-2H-chromen-8-yl)-3-phenylprop-2-en-1-one], the IC50 was 0.37 ± 0.04 µM in test [1] and more than 50 µM on DPP-4. Besides, the “fold enhancement of α-glucosidase inhibitory activity compared to 12” value in test [1] (compared with compound 12) was determined as 10 fold.

The values are drawn from paper PMC7919492, “Synthesis of Rottlerone Analogues and Evaluation of Their α-Glucosidase and DPP-4 Dual Inhibitory and Glucose Consumption-Promoting Activity” (Molecules, 2021).
